Columns and labels:
[1] = molecular target: T1, MAGL (Homo sapiens, UniProt Q99685); assay: In vitro competitive activity-based protein profiling, MAGL, human; conditions: for inhibition at 1 µM: read-out: MAGL % inh. 1 μM (human)
T1 sequence (Q99685 1-303): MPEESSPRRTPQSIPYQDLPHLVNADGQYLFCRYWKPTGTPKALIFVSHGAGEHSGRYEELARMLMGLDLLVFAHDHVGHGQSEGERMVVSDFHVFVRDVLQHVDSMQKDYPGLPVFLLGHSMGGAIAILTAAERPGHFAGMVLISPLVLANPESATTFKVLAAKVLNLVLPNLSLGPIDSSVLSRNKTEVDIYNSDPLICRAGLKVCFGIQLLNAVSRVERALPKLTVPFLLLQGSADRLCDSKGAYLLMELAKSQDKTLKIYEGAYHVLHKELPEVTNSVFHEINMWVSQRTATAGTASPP

[2] = molecular target: T2, MAGL (Mus musculus, UniProt O35678); assay: In vitro competitive activity-based protein profiling, MAGL, mouse; conditions: read-out: MAGL % inh. 1 μM (mouse)
T2 sequence (O35678 1-303): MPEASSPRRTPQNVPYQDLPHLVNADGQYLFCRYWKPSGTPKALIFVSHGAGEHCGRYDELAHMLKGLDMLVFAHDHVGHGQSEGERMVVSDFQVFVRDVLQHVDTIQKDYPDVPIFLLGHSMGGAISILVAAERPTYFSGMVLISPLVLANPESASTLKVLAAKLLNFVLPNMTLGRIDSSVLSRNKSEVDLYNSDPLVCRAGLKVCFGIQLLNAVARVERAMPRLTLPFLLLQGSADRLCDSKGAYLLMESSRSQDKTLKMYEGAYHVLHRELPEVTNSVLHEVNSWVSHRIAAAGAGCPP

[3] = molecular target: T3, FAAH (Homo sapiens, UniProt O00519); assay: In vitro competitive activity-based protein profiling, FAAH, human; conditions: for inhibition at 1 µM: read-out: FAAH % inh. 1 μM (human)
T3 sequence (O00519 1-579): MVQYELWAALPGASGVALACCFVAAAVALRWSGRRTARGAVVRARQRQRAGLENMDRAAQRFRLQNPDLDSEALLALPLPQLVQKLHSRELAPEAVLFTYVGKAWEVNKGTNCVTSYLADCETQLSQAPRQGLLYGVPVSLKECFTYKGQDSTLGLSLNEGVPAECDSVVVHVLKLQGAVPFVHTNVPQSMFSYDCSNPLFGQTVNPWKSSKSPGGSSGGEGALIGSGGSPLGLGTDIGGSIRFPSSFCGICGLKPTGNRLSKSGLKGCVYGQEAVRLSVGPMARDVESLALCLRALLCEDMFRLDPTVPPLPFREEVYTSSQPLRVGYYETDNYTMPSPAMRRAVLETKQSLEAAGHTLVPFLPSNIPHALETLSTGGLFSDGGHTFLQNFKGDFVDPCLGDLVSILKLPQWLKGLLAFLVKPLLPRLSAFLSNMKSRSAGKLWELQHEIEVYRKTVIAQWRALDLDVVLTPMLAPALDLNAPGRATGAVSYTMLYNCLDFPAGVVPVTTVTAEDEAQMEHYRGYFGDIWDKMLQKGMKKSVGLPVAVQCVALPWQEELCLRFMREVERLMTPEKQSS

[4] = molecular target: T4, FAAH (Mus musculus, UniProt O08914); assay: In vitro competitive activity-based protein profiling, FAAH, mouse; conditions: read-out: FAAH % inh. 1 μM (mouse)
T4 sequence (O08914 1-579): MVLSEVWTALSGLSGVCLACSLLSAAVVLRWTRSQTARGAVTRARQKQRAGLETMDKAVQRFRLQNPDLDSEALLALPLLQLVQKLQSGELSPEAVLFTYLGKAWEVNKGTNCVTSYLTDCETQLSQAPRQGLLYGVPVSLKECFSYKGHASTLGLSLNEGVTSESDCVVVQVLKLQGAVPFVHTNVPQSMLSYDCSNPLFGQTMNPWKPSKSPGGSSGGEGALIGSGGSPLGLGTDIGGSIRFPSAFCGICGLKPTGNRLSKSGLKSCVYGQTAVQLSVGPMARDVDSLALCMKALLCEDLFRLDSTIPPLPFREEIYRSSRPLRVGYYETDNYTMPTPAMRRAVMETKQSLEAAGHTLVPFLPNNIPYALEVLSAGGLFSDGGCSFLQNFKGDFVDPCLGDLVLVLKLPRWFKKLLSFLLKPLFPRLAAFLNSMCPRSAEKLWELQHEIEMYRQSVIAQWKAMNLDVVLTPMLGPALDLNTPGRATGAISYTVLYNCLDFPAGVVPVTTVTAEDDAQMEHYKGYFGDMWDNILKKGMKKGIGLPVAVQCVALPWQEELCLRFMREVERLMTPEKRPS
Experimental: Biological Evaluation In Vitro Competitive Activity-Based Protein Profiling.
Proteomes (mouse brain membrane fraction for mouse assays; human prefrontal cortex membrane fractions for human assays) (50 mL, 1.0 mg/mL total protein concentration) were preincubated with varying concentrations of inhibitors at 37° C. After 30 min, FP-Rh (1.0 mL, 50 mM in DMSO) was added and the mixture was incubated for another 30 min at 37° C. Reactions were quenched with SDS loading buffer (15 μL—4λ) and run on SDS-PAGE.

SMILES | inhibition at 1 µM [1] | inhibition at 1 µM [2] | inhibition at 1 µM [3] | inhibition at 1 µM [4] | IC50 [1] | IC50 [3]
O=C(O)c1ccn(C(=O)N2CCC3(CCN(Cc4cc(F)cc(C(F)(F)F)c4)C3)CC2)n1 [Example 152, 1-(2-(3-fluoro-5-(trifluoromethyl)benzyl)-2,8-diazaspiro[4.5]decane-8-carbonyl)-1H-pyrazole-3-carboxylic acid] | > 75% | > 75% | 0 to 25% | 50 to 75% | – | –
O=C(O)c1ccn(C(=O)N2CCC3(CCN(Cc4cccc(OC(F)(F)F)c4)C3)CC2)n1 [Example 153, 1-(2-(3-(trifluoromethoxy)benzyl)-2,8-diazaspiro[4.5]decane-8-carbonyl)-1H-pyrazole-3-carboxylic acid] | > 75% | > 75% | 0 to 25% | 25 to 50% | – | –
Cc1ccc(CN2CCC3(CCN(C(=O)n4ccc(C(=O)O)n4)CC3)C2)cc1Cl [Example 154, 1-(2-(3-chloro-4-methylbenzyl)-2,8-diazaspiro[4.5]decane-8-carbonyl)-1H-pyrazole-3-carboxylic acid] | > 75% | > 75% | 0 to 25% | 0 to 25% | – | –
Cc1cc(CN2CCC3(CCN(C(=O)n4ccc(C(=O)O)n4)CC3)C2)ccc1C(F)(F)F [Example 155, 1-(2-(3-methyl-4-(trifluoromethyl)benzyl)-2,8-diazaspiro[4.5]decane-8-carbonyl)-1H-pyrazole-3-carboxylic acid] | > 75% | > 75% | 0 to 25% | 0 to 25% | 0.1 to 1 µM | 1 to 10 µM
O=C(O)c1ccn(C(=O)N2CC3CN(Cc4cccc(-c5ccccc5)c4)CC3C2)n1 (stereo not drawn) [Example 156, 1-(5-([1,1′-biphenyl]-3-ylmethyl)octahydropyrrolo[3,4-c]pyrrole-2-carbonyl)-1H-pyrazole-3-carboxylic acid] | > 75% | > 75% | 0 to 25% | > 75% | – | –
O=C(O)c1ccn(C(=O)N2CCN(Cc3cc(F)cc(Oc4ccc(Cl)cc4)c3)CC2)n1 [Example 161, 1-(4-(3-(4-chlorophenoxy)-5-fluorobenzyl)pipera-zine-1-carbonyl)-1H-pyrazole-3-carboxylic acid] | > 75% | > 75% | > 75% | > 75% | – | –
O=C(O)c1ccn(C(=O)N2CCC3(CCN(Cc4cc(Cl)cc(Cl)c4)C3)CC2)n1 [Example 162, 1-(2-(3,5-dichlorobenzyl)-2,8-diazaspiro[4.5]decane-8-carbonyl)-1H-pyrazole-3-carboxylic acid] | > 75% | > 75% | > 75% | 25 to 50% | – | 0.1 to 1 µM
CN(Cc1cccc(-c2ccccc2)c1)[C@@H]1C[C@@H]2CN(C(=O)n3ccc(C(=O)O)n3)C[C@@H]2C1 [Example 163, 1-(cis-5-(([1,1′-biphenyl]-3-ylmethyl)(methyl)amino)octahydro-cyclopenta[c]pyrrole-2-carbonyl)-1H-pyrazole-3-carboxylic acid] | 0 to 25% | 0 to 25% | 25 to 50% | 0 to 25% | – | –
O=C(O)c1ccn(C(=O)N2C[C@H]3C[C@@H](Oc4cccc(-c5ccccc5)c4)C[C@H]3C2)n1 [Example 164, 1-(cis-5-([1,1′-biphenyl]-3-yloxy)octahydro-cyclopenta[c]pyrrole-2-carbonyl)-1H-pyrazole-3-carboxylic acid] | > 75% | > 75% | > 75% | 25 to 50% | – | 0.1 to 1 µM
NC(=O)c1ccn(C(=O)N2CCN(Cc3ccc(N4CCOCC4)cc3Cl)CC2)n1 [Example 165, 1-(4-(2-chloro-4-morpholinobenzyl)piperazine-1-carbonyl)-1H-pyrazole-3-carboxamide] | > 75% | > 75% | > 75% | 50 to 75% | – | –
O=C(O)c1ccn(C(=O)N2CC3CN(Cc4ccc(Cl)c(N5CC6COCC6C5)c4)CC3C2)n1 (stereo not drawn) [Example 166, 1-(5-(4-chloro-3-(tetrahydro-1H-furo[3,4-c]pyrrol-5(3H)-yl)benzyl)octahydropyrrolo[3,4-c]pyrrole-2-carbonyl)-1H-pyrazole-3-carboxylic acid] | 50 to 75% | > 75% | 0 to 25% | 0 to 25% | – | –
O=C(O)c1ccn(C(=O)N2CCN(Cc3ccc(N4CCCC4)cc3C(F)(F)F)CC2)n1 [Example 167, 1-(4-(4-(pyrrolidin-1-yl)-2-(trifluoromethyl)benzyl)piperazine-1-carbonyl)-1H-pyrazole-3-carboxylic acid] | > 75% | > 75% | 25 to 50% | 0 to 25% | – | 1 to 10 µM
O=C(O)c1ccn(C(=O)N2CCC3(CCN(Cc4ccc(N5CCCC5)c(Cl)c4)C3)CC2)n1 [Example 168, 1-(2-(3-chloro-4-(pyrrolidin-1-yl)benzyl)-2,8-diazaspiro[4.5]decane-8-carbonyl)-1H-pyrazole-3-carboxylic acid] | 50 to 75% | 0 to 25% | 0 to 25% | 0 to 25% | – | –
O=C(O)c1ccn(C(=O)N2CCC3(CCN(Cc4ccc(N5CCOCC5)cc4Cl)C3)CC2)n1 [Example 169, 1-(2-(2-chloro-4-morpholinobenzyl)-2,8-diazaspiro[4.5]decane-8-carbonyl)-1H-pyrazole-3-carboxylic acid] | 25 to 50% | 0 to 25% | 0 to 25% | 0 to 25% | – | –
O=C(O)c1ccn(C(=O)N2CCC3(CCN(Cc4ccc(Cl)cc4N4CCCC4)C3)CC2)n1 [Example 171, 1-(2-(4-chloro-2-(pyrrolidin-1-yl)benzyl)-2,8-diazaspiro[4.5]decane-8-carbonyl)-1H-pyrazole-3-carboxylic acid] | > 75% | > 75% | 0 to 25% | 0 to 25% | 0.1 to 1 µM | 1 to 10 µM
Cc1cc(CO[C@H]2C[C@@H]3CN(C(=O)n4ccc(C(=O)O)n4)C[C@@H]3C2)ccc1C(F)(F)F [Example 172, 1-(trans-5-((3-methyl-4-(trifluoromethyl)benzyl)oxy)octa-hydrocyclopenta[c]pyrrole-2-carbonyl)-1H-pyrazole-3-carboxylic acid] | > 75% | > 75% | > 75% | 50 to 75% | – | –
NC(=O)c1ccn(C(=O)N2CCN(Cc3ccc(C(F)(F)F)cc3N3CCCC3)CC2)n1 [Example 173, 1-(4-(2-(pyrrolidin-1-yl)-4-(trifluoromethyl)benzyl)piperazine-1-carbonyl)-1H-pyrazole-3-carboxamide] | > 75% | > 75% | > 75% | 50 to 75% | – | –
